Data as given in ChEMBL document CHEMBL3616462, “Synthesis and antiviral activity of maleopimaric and quinopimaric acids' derivatives” (Bioorg Med Chem, 2015).

Legend:
[1] = Cytotoxicity against Influenza A virus (A/California/07/2009(H1N1)) infected MDCK cells; assay type: cell-based, Canis lupus familiaris; settings: dog
[2] = Selectivity index, ratio of CC50 for Influenza A virus (A/California/07/2009(H1N1)) infected MDCK cells to EC50 for antiviral activity against Influenza A virus H1N1 (A/California/07/2009(H1N1)) infected in MDCK cells; assay type: toxicity, cell-based; settings: dog; read-out: Ratio CC50/EC50
[3] = Antiviral activity against Influenza A virus (A/Brisbane/10/2007(H3N2)) infected in MDCK cells; assay type: functional, cell-based
[4] = Cytotoxicity against Influenza A virus (A/Brisbane/10/2007(H3N2)) infected MDCK cells; assay type: cell-based, Canis lupus familiaris; settings: dog
[5] = Antiviral activity against Influenza A virus (A/California/07/2009(H1N1)) infected in MDCK cells; assay type: functional, cell-based
Influenza B virus = test: Antiviral activity against Influenza B virus (B/Florida/4/2006) in MDCK cells; assay type: functional, cell-based; settings: B/Florida/4/2006, MDCK
[6] = Selectivity index, ratio of CC50 for Influenza A virus (A/Viet Nam/1203/2004(H5N1)) infected MDCK cells to EC50 for antiviral activity against Influenza A virus (A/Viet Nam/1203/2004(H5N1)) infected in MDCK cells; assay type: toxicity, cell-based; settings: dog; read-out: Ratio CC50/EC50
[7] = Cytotoxicity against Influenza B virus (B/Florida/4/2006) infected MDCK cells; assay type: cell-based, Canis lupus familiaris; settings: dog
[8] = Antiviral activity against Influenza A virus (A/Viet Nam/1203/2004(H5N1)) infected in MDCK cells; assay type: functional, cell-based
[9] = Cytotoxicity against Influenza A virus (A/Viet Nam/1203/2004(H5N1)) infected MDCK cells; assay type: cell-based, Canis lupus familiaris; settings: dog
[10] = Selectivity index, ratio of CC50 for Influenza A virus (A/Brisbane/10/2007(H3N2)) infected MDCK cells to EC50 for antiviral activity against Influenza A virus (A/Brisbane/10/2007(H3N2)); assay type: toxicity, cell-based; settings: dog; read-out: Ratio CC50/EC50

| Compound | CC50 [1] [µM] | selectivity ratio [2] | EC50 [3] [µM] | CC50 [4] [µM] | EC50 [5] [µM] | EC50 (Influenza B virus) [µM] | selectivity ratio [6] | CC50 [7] [µM] | EC50 [8] [µM] | CC50 [9] [µM] | selectivity ratio [10] |
| --- | --- | --- | --- | --- | --- | --- | --- | --- | --- | --- | --- |
| COC(=O)[C@H]1[C@@H](C(=O)OC)[C@@]23C=C(C(C)C)[C@@H]1C[C@@H]2[C@@]1(C)CCC[C@@](C)(C(=O)OC)[C@@H]1CC3 | 9.4 | 2.5 | > 7.6 | 7.6 | 3.8 | – | – | – | – | – | – |
| COC(=O)[C@]1(C)CCC[C@]2(C)[C@H]3C[C@H]4C(C(C)C)=C[C@]3(CC[C@H]21)[C@@H]1C(=O)CC[C@H](OC(=O)CCC(=O)O)[C@@H]14 | > 100 | – | > 100 | > 100 | > 100 | > 100 | > 1.1 | > 100 | 88 | > 100 | – |
| COC(=O)[C@]1(C)CCC[C@]2(C)[C@H]3C[C@H]4C(C(C)C)=C[C@]3(CC[C@H]21)[C@@H]1/C(=N/O)CCC(=O)[C@@H]14 | 31 | 1 | > 13 | 13 | 31 | > 2.4 | – | 2.4 | > 1.7 | 1.7 | – |
| COC(=O)[C@]1(C)CCC[C@]2(C)[C@H]3C[C@H]4C(C(C)C)=C[C@]3(CC[C@H]21)[C@@H]1C(=O)CC[C@H](OC(C)=O)[C@@H]14 | > 100 | – | > 100 | > 100 | > 100 | > 100 | – | > 100 | > 100 | > 100 | – |
| COC(=O)[C@]1(C)CCC[C@]2(C)[C@H]3C[C@H]4C(C(C)C)=C[C@]3(CC[C@H]21)[C@H]1[C@@H]4[C@@H](OC(=O)c2cccnc2)CC[C@@H]1OC(=O)c1cccnc1 | 32 | 1.1 | > 4.9 | 4.9 | 29 | > 11 | – | 11 | > 8.5 | 8.5 | – |
| COC(=O)[C@]1(C)CCC[C@]2(C)[C@H]3C[C@H]4C(C(C)C)=C[C@]3(CC[C@H]21)[C@@H]1C(=O)CC[C@H](O)[C@@H]14 | > 100 | – | > 100 | > 100 | > 100 | > 100 | – | > 100 | > 100 | > 100 | – |
| COC(=O)[C@]1(C)CCC[C@]2(C)[C@H]3C[C@H]4C(C(C)C)=C[C@]3(CC[C@H]21)[C@@H]1C(=O)CC[C@H](OCCC#N)[C@@H]14 | > 100 | – | 34 | 68 | > 100 | > 52 | – | 52 | > 31 | 31 | 2 |
| COC(=O)[C@]12C=CC(=O)[C@H]1[C@@]13C=C(C(C)C)[C@@H]2C[C@@H]1[C@@]1(C)CCC[C@@](C)(C(=O)OC)[C@@H]1CC3 | 3.8 | 1.2 | 3.2 | 3.9 | 3.1 | > 25 | – | 25 | > 13 | 13 | 1.2 |
| COC(=O)[C@]1(C)CCC[C@]2(C)[C@H]3C[C@H]4C(C(C)C)=C[C@]3(CC[C@H]21)[C@@H]1/C(=N/OC(C)=O)CC[C@H](OC(C)=O)[C@@H]14 | 4.8 | – | 3.1 | 3.3 | > 4.8 | > 2.8 | – | 2.8 | > 2.5 | 2.5 | 1.1 |
| COC(=O)[C@]1(C)CCC[C@]2(C)[C@H]3C[C@@H]4[C@H]5[C@@H]6CCC(=O)[C@H]5[C@@]3(CC[C@H]21)CC4(C(C)C)O6 | > 100 | – | > 100 | > 100 | > 100 | > 100 | – | > 100 | > 100 | > 100 | – |
| COC(=O)[C@]1(C)CCC[C@]2(C)[C@H]3C[C@H]4C(C(C)C)=C[C@]3(CC[C@H]21)[C@@H]1/C(=N/O)CC[C@H](O)[C@@H]14 | 3.5 | 1.1 | > 1.6 | 1.6 | 3.2 | > 1.2 | – | 1.2 | > 1.2 | 1.2 | – |
| COC(=O)[C@]12CCC(=O)[C@H]1[C@@]13C=C(C(C)C)[C@@H]2C[C@@H]1[C@@]1(C)CCC[C@@](C)(C(=O)OC)[C@@H]1CC3 | 34 | 1.1 | 32 | 33 | 31 | > 31 | 1 | 31 | 32 | 32 | 1 |
| CC(C)C1=C[C@@]23CC[C@H]4[C@](C)(COC(=O)/C=C/c5ccccc5)CCC[C@]4(C)[C@H]2C[C@@H]1[C@@H]1[C@H]3[C@@H](OC(=O)/C=C/c2ccccc2)CC[C@@H]1OC(=O)/C=C/c1ccccc1 | 35 | 1.1 | 31 | 33 | 31 | > 46 | – | 46 | > 100 | > 100 | 1.1 |
| COC(=O)[C@]1(C)CCC[C@]2(C)[C@H]3C[C@H]4C(C(C)C)=C[C@]3(CC[C@H]21)[C@H]1[C@@H]4[C@@H](OC(=O)/C=C/c2ccccc2)CC[C@@H]1OC(=O)C=Cc1ccccc1 | 17 | – | > 4 | 4 | > 17 | > 9.3 | – | 9.3 | > 8.2 | 8.2 | – |
| CC(C)C1=C[C@@]23CC[C@@H]4[C@](C)(CCC[C@@]4(C)C(=O)O)[C@H]2C[C@@H]1[C@H]1C(=O)C=CC(=O)[C@H]13 | 33 | 1 | > 27 | 27 | 32 | > 20 | – | 20 | > 30 | 30 | – |
| COC(=O)[C@]1(C)CCC[C@]2(C)[C@H]3C[C@H]4C(C(C)C)=C[C@]3(CC[C@H]21)[C@@H]1C(=O)C=CC(=O)[C@@H]14 | 5.5 | – | 3.2 | 3.9 | > 5.5 | > 2.9 | – | 2.9 | > 2.9 | 2.9 | 1.2 |
| COC(=O)[C@]1(C)CCC[C@]2(C)[C@H]3C[C@H]4C(C(C)C)=C[C@]3(CC[C@H]21)[C@@H]1C(=O)CCC2(OCCO2)[C@@H]14 | 34 | 1.3 | > 26 | 26 | 27 | > 27 | – | 27 | > 24 | 24 | – |
| COC(=O)[C@]12CC[C@H](O)[C@H]1[C@@]13C=C(C(C)C)[C@@H]2C[C@@H]1[C@@]1(C)CCC[C@@](C)(C(=O)OC)[C@@H]1CC3 | 35 | 1.1 | > 24 | 24 | 32 | > 3.1 | 1 | 3.1 | 3.2 | 3.2 | – |
| COC(=O)[C@]1(C)CCC[C@]2(C)[C@H]3C[C@H]4C(C(C)C)=C[C@]3(CC[C@H]21)[C@@H]1C(=O)OC(=O)[C@@H]14 | 35 | 1.1 | 32 | 33 | 31 | > 8.7 | 1.5 | 8.7 | 21 | 32 | 1 |
| CC(C)C1=C[C@@]23CC[C@H]4[C@](C)(CO)CCC[C@]4(C)[C@H]2C[C@@H]1[C@@H]1[C@H]3[C@@H](O)CC[C@@H]1O | 11 | – | 32 | 33 | > 11 | > 31 | – | 31 | > 29 | 29 | 1 |
| COC(=O)[C@]1(C)CCC[C@]2(C)[C@H]3C[C@@H]4[C@@H]5[C@H]6[C@H](OC(C)=O)CC[C@@H]5OC4(C(C)C)C[C@]63CC[C@H]21 | 3.5 | 1.1 | > 5 | 5 | 3.2 | > 10 | – | 10 | > 12 | 12 | – |
| COC(=O)[C@]1(C)CCC[C@]2(C)[C@H]3C[C@H]4C(C(C)C)=C[C@]3(CC[C@H]21)[C@H]1[C@@H]4[C@@H](O)CC[C@@H]1O | 93 | 1.9 | > 64 | 64 | 48 | > 100 | – | > 100 | > 100 | > 100 | – |
